Assay results as given in ChEMBL document CHEMBL5150017, “Mechanism of Action and Structure-Activity Relationship of α-Conotoxin Mr1.1 at the Human α9α10 Nicotinic Acetylcholine Receptor” (J Med Chem, 2022).

Tests used:
[1] = biological target: T1, Neuronal acetylcholine receptor; alpha9/alpha10 (Homo sapiens) (UniProt Q9UGM1+Q9GZZ6); test: Antagonist activity at human alpha9alpha10 nAChR expressed in Xenopus laevis oocytes assessed as inhibition of ACh-induced current amplitude at -80 mV holding potential at 1 uM by two-electrode voltage clamp method; format: cell-based; settings: Oocyte
[2] = biological target: T1, Neuronal acetylcholine receptor; alpha9/alpha10 (Homo sapiens); test: Antagonist activity at human alpha9alpha10 nAChR expressed in Xenopus laevis oocytes assessed as inhibition of ACh-induced current amplitude at -80 mV holding potential at 10 uM by two-electrode voltage clamp method; format: cell-based; settings: Oocyte
[3] = biological target: Neuronal acetylcholine receptor; alpha9/alpha10 (Homo sapiens, UniProt Q9GZZ6+Q9UGM1); test: Antagonist activity at human alpha9alpha10 nAChR expressed in Xenopus laevis oocytes assessed as inhibition of ACh-induced current amplitude at -80 mV holding potential by two-electrode voltage clamp method; format: cell-based, Oocyte
Sequence of Neuronal acetylcholine receptor; alpha9/alpha10 (Q9UGM1 whole entry): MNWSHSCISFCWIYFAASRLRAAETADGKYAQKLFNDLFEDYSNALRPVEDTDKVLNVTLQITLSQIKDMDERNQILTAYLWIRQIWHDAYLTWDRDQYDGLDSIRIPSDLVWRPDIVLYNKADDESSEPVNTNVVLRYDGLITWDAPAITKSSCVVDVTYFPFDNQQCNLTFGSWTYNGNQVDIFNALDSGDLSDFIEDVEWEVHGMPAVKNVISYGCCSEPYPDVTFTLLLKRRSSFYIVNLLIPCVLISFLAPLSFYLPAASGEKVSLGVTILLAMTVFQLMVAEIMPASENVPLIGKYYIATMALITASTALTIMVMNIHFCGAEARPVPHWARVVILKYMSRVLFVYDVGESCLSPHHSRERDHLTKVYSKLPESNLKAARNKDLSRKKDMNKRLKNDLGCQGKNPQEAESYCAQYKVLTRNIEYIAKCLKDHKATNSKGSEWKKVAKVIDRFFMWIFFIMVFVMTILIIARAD
Sequence of Neuronal acetylcholine receptor; alpha9/alpha10 (Q9GZZ6 whole entry): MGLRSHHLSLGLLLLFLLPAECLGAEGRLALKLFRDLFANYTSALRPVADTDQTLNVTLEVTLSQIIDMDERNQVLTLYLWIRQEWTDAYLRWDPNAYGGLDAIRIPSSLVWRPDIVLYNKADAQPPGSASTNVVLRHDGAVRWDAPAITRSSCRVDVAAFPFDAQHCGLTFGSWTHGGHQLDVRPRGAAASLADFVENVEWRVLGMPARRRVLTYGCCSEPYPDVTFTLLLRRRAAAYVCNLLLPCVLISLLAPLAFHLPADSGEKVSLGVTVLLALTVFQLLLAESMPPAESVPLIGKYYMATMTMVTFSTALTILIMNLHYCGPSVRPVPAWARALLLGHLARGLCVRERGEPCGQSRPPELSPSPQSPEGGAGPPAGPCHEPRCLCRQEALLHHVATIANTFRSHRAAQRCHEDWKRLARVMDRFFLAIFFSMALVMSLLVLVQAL

| SMILES | inhibition [1] | inhibition [2] | IC50 [3] |
| --- | --- | --- | --- |
| CC[C@H](C)[C@@H]1NC(=O)[C@H](CCC(=O)O)NC(=O)[C@@H]2CCCN2C(=O)[C@H](Cc2cnc[nH]2)NC(=O)[C@H](CC(=O)O)NC(=O)[C@H](Cc2ccc(O)cc2)NC(=O)[C@H](CC(N)=O)NC(=O)[C@@H]2CSSC[C@H](NC(=O)CN)C(=O)N[C@@H](CSSC[C@@H](C(N)=O)NC1=O)C(=O)N[C@@H](CO)C(=O)N[C@@H](CC(=O)O)C(=O)N1CCC[C@H]1C(=O)N[C@@H](CCCNC(=N)N)C(=O)N2 | 20% | 0% |  |
| N=C(N)NCCC[C@H](NC(=O)[C@H](CS)NC(=O)[C@H](CCCNC(=N)N)NC(=O)[C@H](Cc1ccc(O)cc1)NC(=O)[C@H](CCCNC(=N)N)NC(=O)[C@H](CS)NC(=O)[C@H](CCCNC(=N)N)NC(=O)[C@@H]1CCCN1C(=O)[C@H](CC(=O)O)NC(=O)[C@H](CO)NC(=O)[C@H](CS)NC(=O)[C@H](CS)NC(=O)CN)C(=O)O |  |  | 500 nM |
